How the values were obtained:
Phospholipase A2 group V [1] = molecular target: T1, Phospholipase A2 group V (Mus musculus, UniProt P97391); experiment: Inhibition of mouse sPLA2 group 5
T1 sequence (P97391 whole entry): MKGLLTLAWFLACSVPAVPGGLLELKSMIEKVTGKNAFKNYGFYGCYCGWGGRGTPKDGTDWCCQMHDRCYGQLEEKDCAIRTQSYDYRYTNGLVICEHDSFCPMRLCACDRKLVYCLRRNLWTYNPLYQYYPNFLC

Phospholipase A2 group V [2] = molecular target: T2, Phospholipase A2 group V (Homo sapiens, UniProt P39877); experiment: Inhibition of human sPLA2 group 5
T2 sequence (P39877 whole entry): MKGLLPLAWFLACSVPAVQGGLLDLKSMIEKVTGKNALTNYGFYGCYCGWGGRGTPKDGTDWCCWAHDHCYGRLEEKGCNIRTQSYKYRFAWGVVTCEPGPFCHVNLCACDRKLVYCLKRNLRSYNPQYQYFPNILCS

[3] = molecular target: T3, Phospholipase A2, membrane associated (Mus musculus, UniProt P31482); experiment: Inhibition of mouse sPLA2 group 2A
T3 sequence (P31482 whole entry): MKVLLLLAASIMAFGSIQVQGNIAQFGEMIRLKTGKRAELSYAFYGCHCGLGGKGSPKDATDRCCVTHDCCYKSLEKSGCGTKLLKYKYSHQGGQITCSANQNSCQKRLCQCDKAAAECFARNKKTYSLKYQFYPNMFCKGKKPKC

[4] = molecular target: T4, Phospholipase A2, membrane associated (Homo sapiens, UniProt P14555); experiment: Inhibition of human sPLA2 group 2A
T4 sequence (P14555 whole entry): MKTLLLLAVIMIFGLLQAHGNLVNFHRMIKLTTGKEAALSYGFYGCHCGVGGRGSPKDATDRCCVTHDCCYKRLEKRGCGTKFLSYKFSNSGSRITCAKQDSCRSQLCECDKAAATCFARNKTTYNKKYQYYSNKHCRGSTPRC

[5] = molecular target: T5, Group 10 secretory phospholipase A2 (Homo sapiens, UniProt O15496); experiment: Inhibition of human sPLA2 group 10
T5 sequence (O15496 whole entry): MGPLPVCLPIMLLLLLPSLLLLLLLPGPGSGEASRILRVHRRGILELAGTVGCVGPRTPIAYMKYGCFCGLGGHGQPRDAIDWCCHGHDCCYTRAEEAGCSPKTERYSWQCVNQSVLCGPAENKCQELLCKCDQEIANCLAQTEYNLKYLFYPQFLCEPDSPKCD

[6] = molecular target: T6, Group 10 secretory phospholipase A2 (Mus musculus, UniProt Q9QXX3); experiment: Inhibition of mouse sPLA2 group 10
T6 sequence (Q9QXX3 whole entry): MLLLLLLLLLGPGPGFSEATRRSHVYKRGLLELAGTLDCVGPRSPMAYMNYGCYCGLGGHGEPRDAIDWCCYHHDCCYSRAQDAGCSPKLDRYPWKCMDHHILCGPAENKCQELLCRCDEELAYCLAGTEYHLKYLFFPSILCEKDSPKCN

[7] = molecular target: T7, Phospholipase A2, membrane associated (Rattus norvegicus, UniProt P14423); experiment: Inhibition of rat sPLA2 group 2A
T7 sequence (P14423 whole entry): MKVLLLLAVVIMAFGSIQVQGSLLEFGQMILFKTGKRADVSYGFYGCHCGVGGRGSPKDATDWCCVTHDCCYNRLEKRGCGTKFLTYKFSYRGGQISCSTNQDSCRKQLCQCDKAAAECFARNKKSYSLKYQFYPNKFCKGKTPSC

[8] = molecular target: Phospholipase A2, membrane associated (Oryctolagus cuniculus, UniProt P14422); experiment: Inhibition of rabbit sPLA2 group 2A
Chain of Phospholipase A2, membrane associated (Oryctolagus cuniculus, UniProt P14422) (P14422 whole entry): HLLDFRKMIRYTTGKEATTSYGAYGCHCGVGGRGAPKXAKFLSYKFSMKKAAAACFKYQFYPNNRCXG

Row | SMILES | IC50 (Phospholipase A2 group V [1]) [µM] | IC50 (Phospholipase A2 group V [2]) [µM] | IC50 [3] [µM] | IC50 [4] [µM] | IC50 [5] [µM] | IC50 [6] [µM] | IC50 [7] [µM] | IC50 [8] [µM]
1 | CC(=O)c1c(O)c(C)c(O)c(C(C)=O)c1O | > 1.6 | > 1.6 | > 1.6 | > 1.6 | > 1.6 | > 1.6 |  | 
2 | Oc1ccc(C2CCc3ccc(O)cc3O2)cc1 (stereo not drawn) |  |  | > 3.3 | > 3.3 |  |  | > 3.3 | 
3 | CCCCCCCCCCCCc1c(O)cc(O)c(C(=O)CCCCCCCCCCC)c1O | > 1.6 | > 1.6 | > 1.6 | > 1.6 | > 1.6 | > 1.6 |  | 
4 | CCCCCCCCCCCC(=O)c1c(O)c(C(=O)CCCCCCCCCCC)c(O)c(C2CC(c3ccc(O)cc3)Oc3cc(O)ccc32)c1O (stereo not drawn) | 0.52 |  | 0.03 |  |  | > 1.6 |  | 
5 | Cc1c(O)c(C(=O)Cc2ccccc2)c(O)c(C(=O)Cc2ccccc2)c1O | > 1.6 | > 1.6 | > 1.6 | > 1.6 | > 1.6 | > 1.6 |  | 
6 | CCCCCCCCCCCC(=O)c1cc(C(=O)CCCCCCCCCCC)c(O)cc1O | > 1.6 | > 1.6 | > 1.6 | > 1.6 | > 1.6 | > 1.6 |  | 
7 | CCCCCCCCCCCC(=O)c1cc(C)cc(C(=O)CCCCCCCCCCC)c1O | > 1.6 | > 1.6 | > 1.6 | > 1.6 | > 1.6 | > 1.6 |  | 
8 | CCCCCCCCCCCCc1c(O)c(C(C)=O)c(O)c(C(C)=O)c1O | > 1.6 | > 1.6 | > 1.6 | > 1.6 | > 1.6 | > 1.6 |  | 
9 | CCCCCCCCCCCC(=O)c1c(O)c(C)c(O)c(C(C)=O)c1O | > 1.6 | > 1.6 | > 1.6 | > 1.6 | > 1.6 | > 1.6 |  | 
10 | CCCCCCCCCCCC(=O)c1c(O)cc(O)c(C(=O)CCCCCCCCCCC)c1O [DIDODECANOYLPHLOROGLUCINOL] | 1.6 | 1.6 | 0.11 | 1.6 | > 1.6 | > 1.6 | 0.09 | 0.01
11 | CCCCCCCCCCCC(=O)c1c(O)c(C)c(O)c(C(=O)CCCCCCCCCCC)c1O | 1.6 | 0.53 | 0.06 | 0.69 | > 1.6 | > 1.6 | 0.08 | 

Source: ChEMBL document CHEMBL1142463 (Bioorg Med Chem Lett, 2008)
